Experimental data from US8546389B2 (priority 2010, dated 2013).

Tests used:
1b (BK) NS5bΔ21 = 1b (BK) NS5bΔ21 (Hepatitis C virus genotype 1b (isolate BK) (HCV), UniProt P26663); assay: HCV polymerase inhibition assay, genotype 1b; assay type: biochemical, HCV genotype 1b (BK); details: 1b (BK) NS5bΔ21, 33P-GTP incorporation; read-out: 1b polymerase IC50 (range class)
In short: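 NS5bΔ21 (50 nM) in Tris-HCl pH 7.5 with Mg2+/Mn2+, DTT, BSA, 0.5% DMSO, poly(rC) template, GTP at Km and ^33P-GTP; 3-fold compound dilutions. GTP-started reactions stopped with EDTA after 1 h; incorporation read by DEAE filter scintillation counting. IC50 by non-linear regression; 3a enzyme run the same way.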

[1] = tested on: genotype 1b (Con 1) subgenomic replicon cell line; assay: HCV replicon assay, genotype 1b (Renilla luciferase); assay type: cell-based, HCV genotype 1b (Con 1); details: Hepatitis C virus; genotype 1b replicon, 72 hours, luciferase; read-out: genotype 1b EC50 (range class)
In short: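 Subgenomic replicon cells expressing Renilla luciferase (1b Con1; 1a and 2a lines by the same method) seeded at 7000 cells/well (5000 for 2a) without G418, exposed to 3-fold compound dilutions for 72 h at 37 °C. Luciferase activity measured; EC50 by non-linear regression.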

Chain of 1b (BK) NS5bΔ21 (P26663 2420-2989): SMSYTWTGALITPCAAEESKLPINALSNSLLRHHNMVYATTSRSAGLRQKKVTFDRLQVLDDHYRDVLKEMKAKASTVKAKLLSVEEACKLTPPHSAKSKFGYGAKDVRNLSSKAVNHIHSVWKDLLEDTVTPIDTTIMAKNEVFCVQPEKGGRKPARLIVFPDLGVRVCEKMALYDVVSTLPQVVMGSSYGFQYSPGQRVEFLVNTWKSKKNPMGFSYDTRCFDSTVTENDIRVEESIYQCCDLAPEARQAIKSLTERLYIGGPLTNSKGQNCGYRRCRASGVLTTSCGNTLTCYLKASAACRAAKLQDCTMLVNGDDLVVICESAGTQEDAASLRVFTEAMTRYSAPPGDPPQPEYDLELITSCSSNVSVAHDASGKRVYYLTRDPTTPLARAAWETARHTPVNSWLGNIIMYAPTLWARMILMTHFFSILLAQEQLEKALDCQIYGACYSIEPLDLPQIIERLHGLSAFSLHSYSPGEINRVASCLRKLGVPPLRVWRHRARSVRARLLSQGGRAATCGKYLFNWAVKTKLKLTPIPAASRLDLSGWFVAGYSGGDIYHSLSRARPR

SMILES | IC50 (1b (BK) NS5bΔ21) [nM] | EC50 [1] [nM]
CNC(=O)c1c2cc(C3CC3)c(N(CCCN(C)S(C)(=O)=O)S(C)(=O)=O)cc2nn1-c1ccc(Br)cc1 [Compound 135] | < 990 | < 990
CCN(c1cc2nn(-c3ccc(F)cc3)c(C(=O)NC)c2cc1C1CC1)S(C)(=O)=O [Compound 138] | < 990 | < 990
CCN(c1cc2nn(-c3ccc(F)cc3)c(C(=O)NC)c2cc1C)S(C)(=O)=O [Compound 139] | 1000 to 9990 | 10000 to 50000
CNC(=O)c1c2cc(C3CC3)c(N(Cc3ccncc3)S(C)(=O)=O)cc2nn1-c1ccc(Br)cc1 [Compound 140] | < 990 | < 990
CCOC(=O)CN(c1cc2nn(-c3ccc(Br)cc3)c(C(=O)NC)c2cc1C1CC1)S(C)(=O)=O [Compound 141] | 1000 to 9990 | 10000 to 50000
CCN(c1cc2nn(-c3ccc(F)cc3)c(C(=O)NC)c2cc1C1=CCOCC1)S(C)(=O)=O [Compound 142] | 10000 to 50000 | 1000 to 9990
CNC(=O)CCCN(c1cc2nn(-c3ccc(Br)cc3)c(C(=O)NC)c2cc1C1CC1)S(C)(=O)=O [Compound 143] | < 990 | 1000 to 9990
CC=Cc1cc2c(C(=O)NC)n(-c3ccc(F)cc3)nc2cc1N(CC)S(C)(=O)=O [Compound 144] | 1000 to 9990 | 1000 to 9990
CCCc1cc2c(C(=O)NC)n(-c3ccc(F)cc3)nc2cc1N(CC)S(C)(=O)=O [Compound 145] | 1000 to 9990 | 1000 to 9990
CNC(=O)c1c2cc(C3CC3)c(N(CCCNC(=O)c3ccccc3C(=O)O)S(C)(=O)=O)cc2nn1-c1ccc(NCC(C)C)cc1 [Compound 146] | < 990 | 1000 to 9990
CNC(=O)c1c2cc(C3CC3)c(N(CCCNC(=O)c3ccccc3C(=O)O)S(C)(=O)=O)cc2nn1-c1ccc(Br)cc1 [Compound 147] | < 990 | 1000 to 9990
CNC(=O)CCN(c1cc2nn(-c3ccc(Br)cc3)c(C(=O)NC)c2cc1C1CC1)S(C)(=O)=O [Compound 148] | < 990 | 1000 to 9990
CCN(c1cc2nn(-c3ccc(F)cc3)c(C(=O)NC)c2cc1C#CC(C)(C)O)S(C)(=O)=O [Compound 149] | < 990 | 10000 to 50000
CNC(=O)c1c2cc(C3CC3)c(N(CCC(=O)NS(=O)(=O)c3ccccc3)S(C)(=O)=O)cc2nn1-c1ccc(Br)cc1 [Compound 150] | < 990 | 10000 to 50000
CNC(=O)c1ccccc1C(=O)NCCCN(c1cc2nn(-c3ccc(Br)cc3)c(C(=O)NC)c2cc1C1CC1)S(C)(=O)=O [Compound 151] | < 990 | 1000 to 9990
CNC(=O)CCC(=O)NCCCN(c1cc2nn(-c3ccc(Br)cc3)c(C(=O)NC)c2cc1C1CC1)S(C)(=O)=O [Compound 152] | < 990 | 10000 to 50000
CNC(=O)c1c2cc(C3CC3)c(N(CCC(=O)NS(=O)(=O)c3cccs3)S(C)(=O)=O)cc2nn1-c1ccc(Br)cc1 [Compound 153] | < 990 | 10000 to 50000
CNC(=O)c1c2cc(C3CC3)c(N(CCC(=O)NS(=O)(=O)c3ccc(F)cc3)S(C)(=O)=O)cc2nn1-c1ccc(Br)cc1 [Compound 154] | < 990 | 10000 to 50000
CNC(=O)c1c2cc(C3CC3)c(N(CCC(=O)N(C)C)S(C)(=O)=O)cc2nn1-c1ccc(Br)cc1 [Compound 155] | < 990 | 1000 to 9990
CNC(=O)c1c2cc(C3CC3)c(-c3nccn3C)cc2nn1-c1ccc(F)cc1 [Compound 157] | 1000 to 9990 | 10000 to 50000
CNC(=O)c1c2cc(C3CC3)c(N(CCCNC(=O)CCOC)S(C)(=O)=O)cc2nn1-c1ccc(Br)cc1 [Compound 161] | < 990 | < 990
CCNC(=O)CCN(c1cc2nn(-c3ccc(Br)cc3)c(C(=O)NC)c2cc1C1CC1)S(C)(=O)=O [Compound 162] | 1000 to 9990 | 1000 to 9990
CCN(c1cc2nn(-c3ccc(F)cc3)c(C(=O)NC)c2cc1-c1csc(C)n1)S(C)(=O)=O [Compound 163] | 10000 to 50000 | 1000 to 9990
CCCNC(=O)CCN(c1cc2nn(-c3ccc(Br)cc3)c(C(=O)NC)c2cc1C1CC1)S(C)(=O)=O [Compound 165] | 1000 to 9990 | 1000 to 9990
CNC(=O)c1c2cc(C3CC3)c(N(CCCNC(=O)c3cn(C)cn3)S(C)(=O)=O)cc2nn1-c1ccc(Br)cc1 [Compound 167] | < 990 | < 990
CNC(=O)c1c2cc(C3CC3)c(N(CCCNC(=O)c3cnoc3)S(C)(=O)=O)cc2nn1-c1ccc(Br)cc1 [Compound 168] | < 990 | < 990
CNC(=O)c1c2cc(C3CC3)c(N(CCCN3C(=O)c4ccccc4C3=O)S(C)(=O)=O)cc2nn1-c1ccc(Br)cc1 [Compound 169] | < 990 | < 990

SMILES | IC50 (1b (BK) NS5bΔ21) [nM] | EC50 [1] [nM]
CCN(c1cc2nn(-c3ccc(F)cc3)c(C(=O)NC)c2cc1OCC#N)S(C)(=O)=O [Compound 170] | < 990 | < 990
CNC(=O)c1c2cc(C3CC3)c(N(CCCNC(=O)c3cnoc3C)S(C)(=O)=O)cc2nn1-c1ccc(Br)cc1 [Compound 173] | < 990 | < 990
CNC(=O)c1c2cc(C3CC3)c(N(CCCNC(=O)c3ccnnc3)S(C)(=O)=O)cc2nn1-c1ccc(Br)cc1 [Compound 178] | < 990 | 1000 to 9990
CNC(=O)c1c2cc(C3CC3)c(N(CCCNC(=O)c3ccco3)S(C)(=O)=O)cc2nn1-c1ccc(Br)cc1 [Compound 181] | < 990 | < 990
CNC(=O)c1c2cc(C3CC3)c(N(CCCNC(=O)C3CC3)S(C)(=O)=O)cc2nn1-c1ccc(Br)cc1 [Compound 183] | < 990 | < 990
CCNC(=O)CCCN(c1cc2nn(-c3ccc(Br)cc3)c(C(=O)NC)c2cc1C1CC1)S(C)(=O)=O [Compound 184] | < 990 | 1000 to 9990
CNC(=O)c1c2cc(C3CC3)c(N(CCCNC(=O)CCN(C)C)S(C)(=O)=O)cc2nn1-c1ccc(Br)cc1 [Compound 185] | 1000 to 9990 | 1000 to 9990
CNC(=O)c1c2cc(C3CC3)c(N(CCCNC(=O)c3ccc(N4CCOCC4)nc3)S(C)(=O)=O)cc2nn1-c1ccc(Br)cc1 [Compound 186] | < 990 | < 990
CNC(=O)c1c2cc(C3CC3)c(N(CCCNC(=O)[C@H]3CCCC[C@@H]3C(=O)O)S(C)(=O)=O)cc2nn1-c1ccc(Br)cc1 [Compound 187] | < 990 | 1000 to 9990
CNC(=O)c1c2cc(C3CC3)c(N(CCCNC(=O)[C@H]3CC=CC[C@H]3C(=O)O)S(C)(=O)=O)cc2nn1-c1ccc(Br)cc1 [Compound 188] | < 990 | < 990
C=C(C)c1ccc(-n2nc3cc(N(CC)S(C)(=O)=O)c(C4CC4)cc3c2C(=O)NC)cc1 [Compound 192] | 1000 to 9990 | < 990
CCS(=O)(=O)NC(=O)CCCN(c1cc2nn(-c3ccc(Br)cc3)c(C(=O)NC)c2cc1C1CC1)S(C)(=O)=O [Compound 193] | < 990 | 1000 to 9990
CNC(=O)c1c2cc(C3CC3)c(N(CCCN3CCCC3=O)S(C)(=O)=O)cc2nn1-c1ccc(Br)cc1 [Compound 194] | < 990 | < 990
CNC(=O)c1c2cc(C3CC3)c(N(CCCC(=O)NS(=O)(=O)C(F)(F)F)S(C)(=O)=O)cc2nn1-c1ccc(Br)cc1 [Compound 196] | < 990 | 1000 to 9990
CNC(=O)c1c2cc(C3CC3)c(N(CCCNC(=O)c3ccccc3)S(C)(=O)=O)cc2nn1-c1ccc(Cl)cc1 [Compound 197] | < 990 | < 990
CNC(=O)c1c2cc(C3CC3)c(N(CCCC(=O)NS(=O)(=O)N(C)C)S(C)(=O)=O)cc2nn1-c1ccc(Br)cc1 [Compound 198] | < 990 | 1000 to 9990
CNC(=O)c1c2cc(C3CC3)c(N(CCCN(C)C)S(C)(=O)=O)cc2nn1-c1ccc(Cl)cc1 [Compound 199] | 1000 to 9990 | < 990
CNC(=O)c1c2cc(C3CC3)c(N(CCCN3CCOCC3)S(C)(=O)=O)cc2nn1-c1ccc(Cl)cc1 [Compound 201] | < 990 | < 990
CNC(=O)c1c2cc(C3CC3)c(N(CC3COC(C)(C)OC3)S(C)(=O)=O)cc2nn1-c1ccc(Br)cc1 [Compound 202] | < 990 | < 990
CNC(=O)c1c2cc(C3CC3)c(N(CC(CO)CO)S(C)(=O)=O)cc2nn1-c1ccc(Br)cc1 [Compound 203] | 10000 to 50000 | 10000 to 50000
CNC(=O)c1c2cc(C3CC3)c(N(CCCNC(=O)[C@H]3C[C@H]3C(=O)OC)S(C)(=O)=O)cc2nn1-c1ccc(Br)cc1 [Compound 204] | < 990 | < 990
CNC(=O)c1c2cc(C3CC3)c(N(CCCNC(=O)[C@H]3COCCN3C)S(C)(=O)=O)cc2nn1-c1ccc(Cl)cc1 [Compound 205] | < 990 | < 990
CNC(=O)c1c2cc(C3CC3)c(N(CCCO)S(C)(=O)=O)cc2nn1-c1ccc(C)c(F)c1 [Compound 206] | < 990 | < 990
CNC(=O)c1c2cc(C3CC3)c(N(CCCC(=O)OC)S(C)(=O)=O)cc2nn1-c1ccc(Cl)cc1 [Compound 207] | < 990 | 1000 to 9990
CNC(=O)c1c2cc(C3CC3)c(N(CCCC(=O)O)S(C)(=O)=O)cc2nn1-c1ccc(Cl)cc1 [Compound 208] | < 990 | 10000 to 50000
CNC(=O)c1c2cc(C3CC3)c(N(CCCN3C(=O)[C@H]4CCCC[C@H]4C3=O)S(C)(=O)=O)cc2nn1-c1ccc(Br)cc1 [Compound 209] | < 990 | < 990
